In assay [1] the target is T1, dipeptidyl peptidase-IV enzyme (DPP-4) (Homo sapiens, UniProt P27487).
T1 construct: soluble (transmembrane domain and cytoplasmic extension excluded) human protein; made in house; host or cells: baculovirus expression system (Bac-To-Bac, Gibco BRL)
Put plainly: Continuous fluorometric DPP-4 inhibition assay with substrate Gly-Pro-AMC. The assay is classed as biochemical. The settings on record: soluble human DPP-4, 50 μM Gly-Pro-AMC, pH 7.5, room temperature. The protocol:
Inhibition constants are determined as follows. A continuous fluorometric assay is employed with the substrate Gly-Pro-AMC, which is cleaved by DPP-4 to release the fluorescent AMC leaving group. The kinetic parameters that describe this reaction are as follows: Km=50 μM; kcat=75 s^−1; kcat/Km=1.5×10^6 M^−1 s^−1. A typical reaction contains approximately 50 pM enzyme, 50 μM Gly-Pro-AMC, and buffer (100 mM HEPES, pH 7.5, 0.1 mg/ml BSA) in a total reaction volume of 100 μL. Liberation of AMC is monitored continuously in a 96-well plate fluorometer using an excitation wavelength of 360 nm and an emission wavelength of 460 nm. Under these conditions, approximately 0.8 μM AMC is produced in 30 minutes at 25 degrees C. The enzyme used in these studies was soluble (transmembrane domain and cytoplasmic extension excluded) human protein produced in a baculovirus expression system (Bac-To-Bac, Gibco BRL). […] To measure the dissociation constants for compounds, solutions of inhibitor in DMSO were added to reactions containing enzyme and substrate (final DMSO concentration is 1%). All experiments were conducted at room temperature using the standard reaction conditions described above. To determine the dissociation constants (Ki), reaction rates were fit by non-linear regression to the Michaelis-Menton equation for competitive inhibition. […]

The next assay deals with hematopoiesis. Conditions: mouse model of cyclophosphamide-induced neutropenia; WO 99/56753; cited from earlier work.
Another assay addresses DPP-4 (Homo sapiens, UniProt P27487). The settings on record: cited from earlier work.

We go through four compounds from patent US9073930B2, “Dipeptidyl peptidase-IV inhibitors for the treatment or prevention of diabetes” (Merck Sharp & Dohme Corp., priority 2012, dated 2015).

The term pIC50 denotes −log10 of the IC50, conventionally taken in molar units. Read a high pIC50 as a low IC50.

pIC50: −log10 of the molar value.

T1 sequence (P27487 29-766 limits assumed): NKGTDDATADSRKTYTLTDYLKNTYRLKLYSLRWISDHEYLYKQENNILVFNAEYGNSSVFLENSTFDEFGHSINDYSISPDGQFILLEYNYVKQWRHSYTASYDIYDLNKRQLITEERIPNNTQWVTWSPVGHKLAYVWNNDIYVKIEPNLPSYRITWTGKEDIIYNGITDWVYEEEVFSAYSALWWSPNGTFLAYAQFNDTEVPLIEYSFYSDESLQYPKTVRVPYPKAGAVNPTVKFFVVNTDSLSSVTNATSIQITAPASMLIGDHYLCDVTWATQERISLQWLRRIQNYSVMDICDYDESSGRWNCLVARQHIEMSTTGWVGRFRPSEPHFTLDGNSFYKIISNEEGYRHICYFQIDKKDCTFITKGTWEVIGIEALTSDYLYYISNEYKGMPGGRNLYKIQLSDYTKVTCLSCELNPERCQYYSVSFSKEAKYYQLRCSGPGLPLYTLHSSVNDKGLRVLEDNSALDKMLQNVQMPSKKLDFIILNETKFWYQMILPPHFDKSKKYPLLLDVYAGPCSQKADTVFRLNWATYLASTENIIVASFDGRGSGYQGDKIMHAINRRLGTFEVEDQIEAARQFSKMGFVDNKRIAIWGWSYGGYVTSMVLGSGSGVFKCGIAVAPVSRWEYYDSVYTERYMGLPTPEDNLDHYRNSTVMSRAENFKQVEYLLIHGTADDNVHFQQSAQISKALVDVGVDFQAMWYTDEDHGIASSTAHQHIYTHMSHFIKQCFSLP
Chain of DPP-4 (P27487 whole entry, species assumed): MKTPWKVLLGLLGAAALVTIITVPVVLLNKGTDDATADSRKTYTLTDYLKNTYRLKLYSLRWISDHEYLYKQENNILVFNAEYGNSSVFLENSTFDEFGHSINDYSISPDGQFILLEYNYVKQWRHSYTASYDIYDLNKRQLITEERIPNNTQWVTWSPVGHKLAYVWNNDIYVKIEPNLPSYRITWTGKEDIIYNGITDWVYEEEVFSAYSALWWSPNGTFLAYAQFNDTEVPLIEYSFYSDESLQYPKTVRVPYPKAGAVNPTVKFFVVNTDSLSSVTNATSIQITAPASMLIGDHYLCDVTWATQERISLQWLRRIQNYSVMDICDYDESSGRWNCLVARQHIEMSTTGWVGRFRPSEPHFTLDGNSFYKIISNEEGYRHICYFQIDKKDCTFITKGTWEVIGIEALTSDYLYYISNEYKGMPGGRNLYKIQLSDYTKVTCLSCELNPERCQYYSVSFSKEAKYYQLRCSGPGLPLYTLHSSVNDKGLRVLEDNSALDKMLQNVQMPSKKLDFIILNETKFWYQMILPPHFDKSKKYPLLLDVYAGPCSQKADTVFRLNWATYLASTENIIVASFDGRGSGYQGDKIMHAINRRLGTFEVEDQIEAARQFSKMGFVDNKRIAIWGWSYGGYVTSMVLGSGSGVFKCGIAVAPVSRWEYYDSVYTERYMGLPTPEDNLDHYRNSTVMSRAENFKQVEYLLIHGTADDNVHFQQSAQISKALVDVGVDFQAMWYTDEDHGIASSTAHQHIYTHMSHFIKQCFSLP

In assay [1], `CS(=O)(=O)n1cc2c(n1)CN([C@H]1CO[C@H](c3sccc3F)[C@@H](N)C1)C2` (racemic) [Example 1] showed a pIC50 of 7.05. Same read-out and setting: the value for `CS(=O)(=O)n1cc2c(n1)CN([C@H]1CO[C@H](c3cc(F)cnc3F)[C@@H](N)C1)C2` [Example 2] was 7.00. As to `CC(C)[C@H](N)C(=O)N1CCC[C@H]1B(O)O` [Val-Boro-Pro], the hematopoiesis result in the assay with hematopoiesis was “stimulated hematopoiesis”. In the case of `CC[C@H](C)[C@H](N)C(=O)N1CCC[C@H]1C(=O)N[C@H](C(=O)O)[C@@H](C)CC` [diprotin A], the “degradation of GRF in plasma to GRF[3-44]” value on DPP-4 is “prevented”.
